Laboratory results published in paper PMC9698716, “From Serendipity to Rational Identification of the 5,6,7,8-Tetrahydrobenzo[4,5]thieno[2,3-d]pyrimidin-4(3H)-one Core as a New Chemotype of AKT1 Inhibitors for Acute Myeloid Leukemia” (Pharmaceutics, 2022).
Read-outs that look alike come from different tables or passages of the source.

Assays:
IMS-M2 = test: CellTiter Blue cell viability assay; assay type: cell-based, human; details: IMS-M2, 48 h, read-out: cellular IC50
Description: (§1) The human AML cell lines, OCI-AML3 (carrying the NPM1 gene mutation A and the DNMT3A^R882C mutation), IMS-M2 (carrying the NPM1 gene mutation A), OCI-AML2 (with the wild-type NPM1 and DNMT3A^R635W mutation), and SKM-1 and MOLM-13 (with the wild-type NPM1) were previously reported. The cell lines were purchased from the Deutsche Sammelung von Mikroorganismen und Zellkulturen (DSMZ) (Braunschweig, Germany) cell bank and maintained according to the vendors’ instructions. Briefly, cultured cells were split every 3 days and maintained in an exponential growth phase. The cell lines were tested for mycoplasma using the Universal Mycoplasma Detection Kit (ATCC). The OCI-AML3 were grown in α-MEM supplemented with 20% fetal bovine serum, 100 U/mL penicillin, and 100 μg/mL streptomycin (P/S), and all other cell lines were cultured in RPMI and supplemented with a 10–20% fetal bovine serum and 100 U/mL penicillin and 100 μg/mL streptomycin. The cells were kept at 37 °C in a 5% CO2 incubator. Prior to screening, the appropriate cell concentration for all cell lines was determined. For the cell lines’ treatments, cells were maintained as follows: OCI-AML3 at 0.25 × 10^6/mL, OCI-AML2 and IMS-M2 at 0.35 × 10^6/mL, and SKM-1 and MOLM-13 at 0.5 × 10^6/mL. The compounds were re-suspended at 10 mM stock in DMSO. Further dilutions were performed in phosphate-buffer-saline (PBS) for pharmacological experiments. The cells were exposed to compounds at different concentrations for the indicated time points and sampled as described below. Briefly, the cells (4 × 10^5/mL) were seeded in 384-well plate and treated for 48 h with various concentrations (0.001 μM to 100 μM) of either one of the compounds, T101, T126, and T159, or NSC348884, as a positive control. Each plate included DMSO at 0.1% as a negative control. The metabolic cell activity was measured by using the CellTiter Blue proliferation agent (Roche) as described in the manufacturer’s procedure. Briefly, CellTiter Blue solution (Resazaurin) was added to each well and the plates were incubated at 37 °C with 5% CO2 for 4 h. During the incubation time, the resazurin is reduced to fluorescent resorufin in metabolically and proliferating living cells. The fluorescence intensity was measured using the automated Tecan plate reader (Tecan Group Ltd., Männedorf, Switzerland) at an excitation/emission wavelength of 531/572 nm. The fluorescence readouts were reported as relative fluorescence units (RFU) and read on a luminescence plate reader (Infinite 200 Pro, Tecan, CA, USA). The dose response curves ([…] (IC50)) were obtained by non-linear regression analysis using the GraphPad Prism 5.0 program. The concentration is shown as a logarithmic function. All the experiments were performed at least in triplicate, with technical repetition. The results are expressed as mean ± standard error of the mean (SEM). For the Colony Forming Unit (CFU) assay, 10 × 10^6 CD34+ human hematopoietic progenitors were received from unique healthy donors, upon signed informed consent, and were cultured in SFEM II (Serum-free medium) and P/S at a density of 1 × 10^6/mL with cytokines that are important for cell division and self-renewal: fms-like tyrosine kinase 3 (FLT3)-ligand, FLT3L (100 ng/mL), Stem Cell Factor, SCF (100 ng/mL) and Trombopoietin, and TPO (50 ng/mL) for 48 h before plating them on a Methocult medium.

MOLM-13 = test: CellTiter Blue cell viability assay; assay type: cell-based, human; details: MOLM-13, 48 h, read-out: cellular IC50
Description: as §1

OCI-AML2 = test: CellTiter Blue cell viability assay; assay type: cell-based, human; details: OCI-AML2, 48 h, read-out: cellular IC50
Description: as §1

OCI-AML3 = test: CellTiter Blue cell viability assay; assay type: cell-based, human; details: OCI-AML3, 48 h, read-out: cellular IC50
Description: as §1

SKM-1 = test: CellTiter Blue cell viability assay; assay type: cell-based, human; details: SKM-1, 48 h, read-out: cellular IC50
Description: as §1

AKT1 [1] = target: T1, AKT1 (Homo sapiens, UniProt P31749); test: AKT1 enzymatic inhibition assay; assay type: biochemical; details: for Ligand efficiency (LE = 1.4 pIC50/N): from AKT1 IC50, N = heavy atoms; for Ki: read-out: Ki (AKT1 inhibition constant)
T1 construct: purchased Kinase Logistics, Meyn, Germany #Aps 01-101
Method: The studied compounds, including the standard inhibitor Staurosporine (Thermo-Fisher , Madrid, Spain, Invitrogen BP2541), were incubated with 3 nM AKT1 (#Aps 01-101; Kinase Logistics, Meyn, Germany) and 1.5 μM Profiler Pro peptide 6 (#760350; Perkin Elmer, Tres Cantos, Madrid, Spain) in the presence of different concentrations of Adenosine 5′triphosphate disodium salt, ATP (#A2383; Sigma Aldrich, Madrid, Spain) in a 384-well Microplate (#781076; Greiner, San Sebastián de los Reyes, Madrid, Spain). The reaction rate was calculated from kinetic measurements carried out measured in a Caliper EzReader LabChip 3000 (Caliper, Hopkinton, MA, USA) reader with samples taken each 10 min for a total time of 60 min. The percentage of substrate conversion rate was plotted versus the ATP concentration. The data was analyzed by non-linear fitting with GraphPad Prism by employing the Michaelis–Menten equation. The buffer assay used in the inhibition hAKT1 assay is: Hepes 100 mM, DMSO 4%, Brij 0.003%, Tween 20 0.004%, MgCl2 10 mM, with a pH = 7.5.
The Ki values were calculated by employing the GraphPad Prism equations.

p38 MAPK = test: activity against p38 MAPK (originally desired target); assay type: biochemical
AKT1 [2] = tested on: AKT1; parameters: method as in PMID 33995085; details: ref [51]; cited from earlier work
AKT3 = tested on: AKT3; parameters: method as in PMID 33995085; details: ref [51]; cited from earlier work
[3] = 10 μM compound, read-out: %inh (percentage of inhibition of AKT1 activity)

T1 sequence (P31749 whole entry): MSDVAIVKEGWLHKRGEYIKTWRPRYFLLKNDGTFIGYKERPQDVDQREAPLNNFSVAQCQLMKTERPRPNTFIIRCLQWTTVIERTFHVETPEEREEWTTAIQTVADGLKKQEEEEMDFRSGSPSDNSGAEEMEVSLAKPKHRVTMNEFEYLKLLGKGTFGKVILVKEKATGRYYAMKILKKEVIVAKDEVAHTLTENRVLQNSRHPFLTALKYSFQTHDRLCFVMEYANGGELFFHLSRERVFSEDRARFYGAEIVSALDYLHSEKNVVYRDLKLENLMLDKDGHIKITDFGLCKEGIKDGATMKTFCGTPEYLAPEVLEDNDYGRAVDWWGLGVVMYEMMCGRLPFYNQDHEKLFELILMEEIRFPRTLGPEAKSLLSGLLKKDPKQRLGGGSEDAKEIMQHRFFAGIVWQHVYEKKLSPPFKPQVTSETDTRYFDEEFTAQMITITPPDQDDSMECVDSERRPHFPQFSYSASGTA

Q: Which IC50 (IMS-M2) does the source give for `Cc1ccc2nc(CN(CCN(Cc3nc4ccc(C)cc4[nH]3)Cc3nc4ccc(C)cc4[nH]3)Cc3nc4ccc(C)cc4[nH]3)[nH]c2c1` [NSC348884, reference compound] here?
A: The IC50 was 7.6 µM.

Q: What about the IC50 (MOLM-13) of the same compound?
A: The IC50 was 3.4 µM.

Q: What about the IC50 (OCI-AML2) of the same compound?
A: Its IC50 is 5.6 µM.

Q: And the IC50 (OCI-AML3)?
A: Its IC50 is 6.6 µM.

Q: And the IC50 (SKM-1)?
A: Its IC50 is 2.1 µM.

Q: For `Cc1cc(-c2ccccc2)nc2nc(NC(=O)c3ccc(O)c(O)c3)nn12` [T101], which IC50 (AKT1 [1]) is on record?
A: Its IC50 is 1.62 ± 0.15 µM.

Q: And the inhibition at 10 µM (AKT1 [1]; [3])?
A: Its inhibition at 10 µM is 95%.

Q: And the “Ligand efficiency (LE = 1.4 pIC50/N)” value (AKT1 [1])?
A: The value was 0.29 kcal mol^−1 N^−1.

Q: And the Ki (AKT1 [1])?
A: Its Ki is 240 nM.

Q: What about the IC50 (IMS-M2; Homo sapiens) of the same compound?
A: Its IC50 is > 30 µM.

Q: What about the IC50 (MOLM-13; Homo sapiens) of the same compound?
A: Its IC50 is > 30 µM.

Q: What about the IC50 (OCI-AML2; Homo sapiens) of the same compound?
A: Its IC50 is > 30 µM.

Q: What about the IC50 (OCI-AML3; Homo sapiens, OCI-AML-3) of the same compound?
A: Its IC50 is > 30 µM.

Q: What about the IC50 (SKM-1; Homo sapiens) of the same compound?
A: Its IC50 is > 30 µM.

Q: For `O=c1[nH]c(-c2ccc(O)c(O)c2)nc2sc3c(c12)CCCCC3` [T124], which IC50 (AKT1 [1]) is on record?
A: The IC50 was 30.9 µM.

Q: And the “potency against AKT1 (in words)” value (AKT1 [1])?
A: Its value is “moderately active”.

Q: What about the “%inh (percentage of inhibition of AKT1 activity)” value (AKT1 [1]; 10 μM compound, 10 µM) of the same compound?
A: The value was 60%.

Q: And the inhibition at 10 µM (AKT1 [1]; [3])?
A: Its inhibition at 10 µM is > 60%.

Q: What about the “Ligand efficiency (LE = 1.4 pIC50/N)” value (AKT1 [1]) of the same compound?
A: Its value is 0.27 kcal mol^−1 N^−1.

Q: With `O=c1[nH]c(-c2ccc(O)c(O)c2)nc2sc3c(c12)CCC3` [T128] as the compound, how does the IC50 (AKT1 [1]) read?
A: Its IC50 is 26.6 ± 4.8 µM.

Q: And the “potency against AKT1 (in words)” value (AKT1 [1])?
A: The value was “moderately active”.

Q: What about the inhibition at 10 µM (AKT1 [1]; [3]) of the same compound?
A: Its inhibition at 10 µM is 78%.

Q: And the “Ligand efficiency (LE = 1.4 pIC50/N)” value (AKT1 [1])?
A: Its value is 0.30 kcal mol^−1 N^−1.

Q: Which IC50 (AKT1 [1]) does the source give for `NC(=O)c1c(NC(=O)c2ccc(O)c(O)c2)sc2c1CCCCC2` [T159] here?
A: The IC50 was 2.12 ± 0.26 µM.

Q: And the inhibition at 10 µM (AKT1 [1]; [3])?
A: Its inhibition at 10 µM is 94%.

Q: What about the Ki (AKT1 [1]) of the same compound?
A: Its Ki is 1910 nM.

Q: And the IC50 (IMS-M2; Homo sapiens)?
A: Its IC50 is > 30 µM.

Q: What about the IC50 (MOLM-13; Homo sapiens) of the same compound?
A: Its IC50 is > 30 µM.

Q: What about the IC50 (OCI-AML2; Homo sapiens) of the same compound?
A: The IC50 was > 30 µM.

Q: And the IC50 (OCI-AML3; Homo sapiens, OCI-AML-3)?
A: Its IC50 is > 30 µM.

Q: What about the IC50 (SKM-1; Homo sapiens) of the same compound?
A: The IC50 was > 30 µM.

Q: Which IC50 (AKT1 [1]) does the source give for `NC(=O)c1c(NC(=O)c2ccc(F)cc2F)sc2c1CCCCC2` [T187, 2-(2,4-Difluorobenzamido)-5,6,7,8-tetrahydro-4H-cyclohepta[b]thiophene-3-carboxamide] here?
A: Its IC50 is 11.4 ± 2.8 µM.

Q: And the inhibition at 10 µM (AKT1 [1]; [3])?
A: Its inhibition at 10 µM is 56%.

Q: What about the inhibition at 50 µM (AKT1 [1]; 50 μM compound solution (footnote b of Table S2), read-out: %inh (percentage of inhibition of AKT1 activity)) of the same compound?
A: Its inhibition at 50 µM is 56%.

Q: And the “Ligand efficiency (LE = 1.4 pIC50/N)” value (AKT1 [1])?
A: The value was 0.28 kcal mol^−1 N^−1.

Q: What about the Ki (AKT1 [1]) of the same compound?
A: Its Ki is 4190 ± 1360 nM.

Q: And the “activity against p38 MAPK” value (p38 MAPK)?
A: The value was “inactive”.

Q: Which IC50 (AKT1 [2]) does the source give for `CC(C)NC[C@@H](C(=O)N1CCN(c2ncnc3c2[C@H](C)C[C@H]3O)CC1)c1ccc(Cl)cc1` [ipatasertib] here?
A: The IC50 was […].

Q: What about the IC50 (AKT3) of the same compound?
A: The IC50 was […].
